Test [1] addresses E321N, E324N mutant BK channel (Mus musculus, UniProt Q08460, E386N/E389N). The class given is cell-based.
In a further test the test system is Shaker channels. Particulars: ref Murrell-Lagnado and Aldrich, 1993b; cited from earlier work.
Test [2] addresses wild-type BK channel (mslo, mbr5) (Mus musculus, UniProt Q08460). The test is described as follows: Macroscopic block of wild-type BK currents, inside-out patch clamp. The class given is cell-based. The note with it: for time constant of block, τfast (double exponential fit) / time constant of block, τslow (double exponential fit): inside-out patch, 22°C, holding potential −80 mV. A general note: Patch clamp records ionic current or voltage across a cell membrane.

Test [3] has as its system other K^+ channels and CNG channels. Particulars: most other K^+ channels; cited from earlier work.
Test [4] has as its system Shaker channel (ShB Δ6-46). Nature of the test: Macroscopic block of Shaker currents, inside-out patch clamp. The note with it: identical conditions, holding potential −120 mV. The class given is cell-based.
The subject of a further test is BK channels. The note with it: ref Foster et al., 1992, cited from earlier work.
Where [5] appears, read: when roughly half of the channels are blocked.

wild-type BK channel (mslo, mbr5), sequence (Q08460 66-1209 limits assumed): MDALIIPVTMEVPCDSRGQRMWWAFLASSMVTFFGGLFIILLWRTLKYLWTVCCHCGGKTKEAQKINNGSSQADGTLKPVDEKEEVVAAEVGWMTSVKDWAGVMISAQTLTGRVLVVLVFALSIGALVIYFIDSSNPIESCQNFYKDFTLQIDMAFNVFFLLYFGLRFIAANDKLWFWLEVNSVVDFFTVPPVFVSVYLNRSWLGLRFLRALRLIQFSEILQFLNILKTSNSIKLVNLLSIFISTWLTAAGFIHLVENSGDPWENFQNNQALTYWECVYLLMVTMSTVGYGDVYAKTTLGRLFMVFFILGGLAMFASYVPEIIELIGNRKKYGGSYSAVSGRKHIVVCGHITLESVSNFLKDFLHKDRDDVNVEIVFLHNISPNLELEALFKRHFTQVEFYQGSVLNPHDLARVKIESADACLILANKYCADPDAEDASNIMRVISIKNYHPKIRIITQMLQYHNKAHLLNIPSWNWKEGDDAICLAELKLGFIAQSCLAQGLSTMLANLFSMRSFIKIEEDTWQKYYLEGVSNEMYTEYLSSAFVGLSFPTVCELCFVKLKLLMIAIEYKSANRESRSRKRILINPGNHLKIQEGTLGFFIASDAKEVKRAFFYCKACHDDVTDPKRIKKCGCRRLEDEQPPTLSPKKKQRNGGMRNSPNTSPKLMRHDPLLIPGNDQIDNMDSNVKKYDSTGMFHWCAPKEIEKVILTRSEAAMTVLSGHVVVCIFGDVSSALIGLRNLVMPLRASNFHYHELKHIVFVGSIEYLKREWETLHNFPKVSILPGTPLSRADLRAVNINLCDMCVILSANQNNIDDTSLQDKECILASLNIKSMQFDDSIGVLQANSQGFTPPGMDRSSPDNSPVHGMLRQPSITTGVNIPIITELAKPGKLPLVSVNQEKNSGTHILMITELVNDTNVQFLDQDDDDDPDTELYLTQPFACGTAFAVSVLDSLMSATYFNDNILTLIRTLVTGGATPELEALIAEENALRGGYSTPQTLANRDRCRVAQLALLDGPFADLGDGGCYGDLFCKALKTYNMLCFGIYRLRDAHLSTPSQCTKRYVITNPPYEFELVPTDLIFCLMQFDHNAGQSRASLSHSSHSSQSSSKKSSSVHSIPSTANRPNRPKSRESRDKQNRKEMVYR
E321N, E324N mutant BK channel, sequence (Q08460 66-1209 E386N/E389N limits assumed): as the sequence (Q08460 66-1209 limits assumed) above, with E321N, E324N counted along it

Regarding MAAVAGLYGLGEDRQHRKKQ [ShBP], the “block of E321N, E324N currents by ShBP” value in test [1] (100 μM ShBP, 120 mV (unpublished data), roughly estimated) was ~20%. Besides, the “decrease in apparent affinity of ShBP by the double mutation” value in test [1] (120 mV) is given as ~10 fold. Besides, in the test on Shaker channels, the “dissociation rate, Shaker channels” value is ~10 s⁻¹. In test [2] (30 μM ShBP, macroscopic), the “time constant of block, τfast (double exponential fit)” value is on record as 2.0 ms and the “time constant of block, τslow (double exponential fit)” value turned out to be 13.1 ms. Besides, in test [2] (100 μM ShBP, 120 mV), the “block of wild-type BK currents by ShBP” value is ~70%. In test [2] (100 μM ShBP, macroscopic), the “time constant of block, τfast (double exponential fit)” value amounted to 0.7 ms and the “time constant of block, τslow (double exponential fit)” value was 5.2 ms. Further, the “type of block events in BK channels” value in test [2] (native ShBP) is “mainly short block events”. Moreover, the “character of block events” value in test [2] (when about half of the currents are blocked, macroscopic) is on record as “the majority of the block events are short lived”. In test [2] (setting [5]), the “time constant of block, faster of two components” value was ~2 ms and the “time constant of block, slower of two components” value is listed as ~10 ms. In test [3], the “type of block events in other K+ channels” value is given as “only long block events”. Also, the “block of Shaker compared with BK currents” value in test [4] was “slower block and higher apparent affinity”. The “lifetime of short block events, single BK channels” value in the test with BK channels (dominating, Toro et al., 1992, 1994) is reported as “a few milliseconds”. Besides, the “lifetime of long block events, single BK channels” value with BK channels (rare, Toro et al., 1992, 1994) is reported as “hundreds of milliseconds”. The “dissociation rate for the short block of BK channels” value with BK channels (Toro et al.) is ~100 s⁻¹.

Source of the values: article PMC2151574 (The Journal of General Physiology, 2006).
